Values quoted from earlier work as cited in patent US9456985B2, “Sustained-released product comprising a combination of a non-opioid amine and a non-steroidal, anti-inflammatory drug” (Upsher-Smith Laboratories, Inc., priority 2009, dated 2016).
Structures can show the parent of a compound that is named as a salt.

Settings: no test described

SMILES	solubility (descriptive)
NC12CC3CC(CC(C3)C1)C2 [Amantadine hydrochloride]	freely soluble
CC12CC3CC(C)(C1)CC(N)(C3)C2 [memantine hydrochloride, Memantine hydrochloride]	soluble in water
